What is called IC50 is the concentration that gives 50% inhibition.

The test deals with CXCR3 (Macaca fascicularis, UniProt A0A2K5UV19). Kind of test: functional cellular assay measuring calcium flux in CXCR3 transfected cells (block of CXCR3/IP-10 interaction). Format: cell-based. The note with it: IP-10 induced intracellular calcium flux; Cyno-CHO cells stably expressing recombinant CXCR3 and G-alpha-16. How it is done: Compounds are assessed for the ability to block the interaction of CXCR3 and IP-10 in a functional cellular assay measuring calcium flux in CXCR3 transfected cells.
CXCR3, sequence (A0A2K5UV19 entry or part of it): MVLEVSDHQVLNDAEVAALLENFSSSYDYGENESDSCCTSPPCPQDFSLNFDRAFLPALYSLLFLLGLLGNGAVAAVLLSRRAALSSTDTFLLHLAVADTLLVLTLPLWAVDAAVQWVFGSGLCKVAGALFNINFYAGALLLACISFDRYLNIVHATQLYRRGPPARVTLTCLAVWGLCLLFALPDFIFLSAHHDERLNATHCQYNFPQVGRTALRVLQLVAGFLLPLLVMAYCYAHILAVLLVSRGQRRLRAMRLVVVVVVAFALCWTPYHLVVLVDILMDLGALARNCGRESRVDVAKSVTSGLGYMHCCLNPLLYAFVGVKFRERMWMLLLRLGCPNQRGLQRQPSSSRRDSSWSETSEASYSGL
Cyno-CHO cells, stably expressing recombinant CXCR3 and G-alpha-16 are grown in F12 medium (Mediatech #45000-360) supplemented with 10% (V/V) FBS (Mediatech #35-01500), 1% Geneticin (Invitrogen #10131-027) and 0.2% Zeocin (Invitrogen #R250-05). The cells are spun down and re-suspended in growth media to a concentration of 4.8 E5 cells/mL. 25 microL of cell suspension is added to each well of a BD-384-well TC treated plate, providing 12,000 cells/well. The plate is incubated at 37° C./5% CO2 overnight. On the day of the assay, the plates are removed, the media is flicked out and 25 microL of Ca-4 dye in assay buffer (HBSS, 10 mM HEPES ph 7.4), containing 2 mM probenacid is added to each well. The cell assay plates are then incubated at 37° C./5% CO2 for one hour.
Test compounds are dissolved in DMSO and diluted to 1.045 mM in DMSO. Just prior to assay, 2.75 microL of appropriately diluted test compound are added to each well of a 384 well plate containing 45 microL of HBSS buffer. After mixing, 5 microL of diluted compound are added to each well of the cell assay plate for a final assay concentration of 10 microM. The plate is incubated at room temperature for 15 min. 10 microL of IP-10 stock solution in HBSS (4× EC80 concentration) are added to each well of the cell assay plate except those cells reserved as blank wells containing buffer only. Intracellular calcium flux is recorded on the HAMAMTSU FDSS6000, using excitation at 480 nm and emission at 540 nm. Data are analyzed using Activity Base software.
In general, the preferred potency range (IC50) of compounds in the above assay is between 1 nM to 3 μM, and the most preferred potency range is 1 nM to 20 nM.
(Calcium flux is commonly read through the fluorescence of an indicator in the cells.)
For `Cc1cc(C)n(CC(=O)N2CCN(c3ccccc3C(=O)Nc3cc(-c4ccccc4)no3)CC2)n1` [2-{4-[2-(3,5-Dimethyl-pyrazol-1-yl)-acetyl]-piperazin-1-yl}-N-(3-phenyl-isoxazol-5-yl)-benzamide], the IC50 amounted to 8.8 nM.

Take `Cc1cc(C)n(CC(=O)N2CCN(c3ccccc3C(=O)Nc3cnc4c(cnn4C(C)C)c3)CC2)n1` [2-{4-[2-(3,5-Dimethyl-pyrazol-1-yl)-acetyl]-piperazin-1-yl}-N-(1-isopropyl-1H-pyrazolo[3,4-b]pyridin-5-yl)-benzamide]: the IC50 amounted to 11.5 nM.

`Cc1cc(C)n(CC(=O)N2CCN(c3ccccc3C(=O)Nc3ccccc3F)CC2)n1` [2-{4-[2-(3,5-Dimethyl-pyrazol-1-yl)-acetyl]-piperazin-1-yl}-N-(2-fluoro-phenyl)-benzamide]: the IC50 came to 5.5 nM.

`O=C(Nc1ccncc1)c1ccccc1N1CCN(C(=O)CN2CCc3cccnc32)CC1` [2-[4-(2-2,3-Dihydro-pyrrolo[2,3-b]pyridin-1-yl-acetyl)-piperazin-1-yl]-N-pyridin-4-yl-benzamide]: the IC50 amounted to 9 nM.

With `Cc1cc(C(=O)NCC(=O)N2CCN(c3ccccc3C(=O)Nc3ccncc3)CC2)n(C)n1` [2,5-Dimethyl-2H-pyrazole-3-carboxylic acid (2-oxo-2-{4-[2-(pyridin-4-ylcarbamoyl)-phenyl]-piperazin-1-yl}-ethyl)-amide], the IC50 was determined as 5.4 nM.

As for `O=C(Nc1cccnc1)c1ccccc1N1CCN(C(=O)Cn2ccc3cccnc32)CC1` [N-Pyridin-3-yl-2-[4-(2-pyrrolo[2,3-b]pyridin-1-yl-acetyl)-piperazin-1-yl]-benzamide], the IC50 amounted to 4.6 nM.

In the case of `O=C(Nc1ccncc1)c1ccccc1N1CCN(C(=O)Cn2ccc3cccnc32)CC1` [N-Pyridin-4-yl-2-[4-(2-pyrrolo[2,3-b]pyridin-1-yl-acetyl)-piperazin-1-yl]-benzamide], the half-inhibitory concentration (IC50) was 4.9 nM.

On to `Cc1cc(C)n(CC(=O)N2CCN(c3ccccc3C(=O)Nc3ccc(Oc4ccccc4)nc3)CC2)n1` [2-{4-[2-(3,5-Dimethyl-pyrazol-1-yl)-acetyl]-piperazin-1-yl}-N-(6-phenoxy-pyridin-3-yl)-benzamide], for which the IC50 was 10 nM.

Regarding `Cc1nc(C)c(C(=O)NCC(=O)N2CCN(c3ccccc3C(=O)Nc3cccnc3)CC2)s1` [2,4-Dimethyl-thiazole-5-carboxylic acid (2-oxo-2-{4-[2-(pyridin-3-ylcarbamoyl)-phenyl]-piperazin-1-yl}-ethyl)-amide], the IC50 stood at 13.9 nM.

Consider `Cc1cc(C)n(CC(=O)N2CCN(c3ccccc3C(=O)Nc3ccnnc3)CC2)n1` [2-{4-[2-(3,5-Dimethyl-pyrazol-1-yl)-acetyl]-piperazin-1-yl}-N-pyridazin-4-yl-benzamide], for which the half-inhibitory concentration (IC50) was 17 nM.

Consider `Cc1cc(C)n(CC(=O)N2CCN(c3ccccc3C(=O)Nc3cccc(OC(F)(F)F)c3)CC2)n1` [2-{4-[2-(3,5-Dimethyl-pyrazol-1-yl)-acetyl]-piperazin-1-yl}-N-(3-trifluoromethoxy-phenyl)-benzamide], for which the IC50 came to 3.1 nM.

Take `O=C(Nc1ccncc1)c1ccccc1N1CCN(C(=O)Cc2cn3ccccc3n2)CC1` [2-[4-(2-Imidazo[1,2-a]pyridin-2-yl-acetyl)-piperazin-1-yl]-N-pyridin-4-yl-benzamide]: the 50% inhibitory concentration (IC50) came to 16 nM.

`Cc1cc(C)n(CC(=O)N2CCN(c3ccccc3NC(=O)c3ccc(Cl)cc3)CC2)n1` [4-Chloro-N-(2-{4-[2-(3,5-dimethyl-pyrazol-1-yl)-acetyl]-piperazin-1-yl}-phenyl)-benzamide]: the IC50 was determined as 4.7 nM.

Consider `Cc1cc(C)n(CC(=O)N2CCN(c3ccccc3C(=O)Nc3cccc(C(F)(F)F)c3)CC2)n1` [2-{4-[2-(3,5-Dimethyl-pyrazol-1-yl)-acetyl]-piperazin-1-yl}-N-(3-trifluoromethyl-phenyl)-benzamide], for which the IC50 was 8 nM.

As for `CN1CCc2nc(NC(=O)c3ccccc3N3CCN(C(=O)CN4Cc5ccccc5C4=O)CC3)sc2C1` [N-(5-Methyl-4,5,6,7-tetrahydro-thiazolo[5,4-c]pyridin-2-yl)-2-{4-[2-(1-oxo-1,3-dihydro-isoindol-2-yl)-acetyl]-piperazin-1-yl}-benzamide], the IC50 is 2.9 nM.

Take `O=C(Nc1cnc2ccccc2c1)c1ccccc1N1CCN(C(=O)Cn2ccc3cccnc32)CC1` [2-[4-(2-Pyrrolo[2,3-b]pyridin-1-yl-acetyl)-piperazin-1-yl]-N-quinolin-3-yl-benzamide]: the IC50 worked out at 8.4 nM.

As to `Cc1cc(C)n(CC(=O)N2CCN(c3ccccc3C(=O)Nc3cc(C(C)(C)C)no3)CC2)n1` [N-(3-tert-Butyl-isoxazol-5-yl)-2-{4-[2-(3,5-dimethyl-pyrazol-1-yl)-acetyl]-piperazin-1-yl}-benzamide], the IC50 came to 8.9 nM.

As to `COc1ccc(C(=O)N(C)CC(=O)N2CCN(c3ccccc3C(=O)Nc3ccncc3)CC2)cc1` [4-Methoxy-N-methyl-N-(2-oxo-2-{4-[2-(pyridin-4-ylcarbamoyl)-phenyl]-piperazin-1-yl}-ethyl)-benzamide], the IC50 stood at 15 nM.

For `Cc1cc(C)n(CC(=O)N2CCN(c3ccccc3C(=O)Nc3nc4cc(Cl)ccc4s3)CC2)n1` [N-(5-Chloro-benzothiazol-2-yl)-2-{4-[2-(3,5-dimethyl-pyrazol-1-yl)-acetyl]-piperazin-1-yl}-benzamide], the IC50 was found to be 17 nM.

As for `Cc1cc(C)n(CC(=O)N2CCN(c3ccccc3C(=O)Nc3cnc(C(F)(F)F)nc3)CC2)n1` [2-{4-[2-(3,5-Dimethyl-pyrazol-1-yl)-acetyl]-piperazin-1-yl}-N-(2-trifluoromethyl-pyrimidin-5-yl)-benzamide], the IC50 was 5 nM.

On to `Cc1cc(C)n(CC(=O)N2CCN(c3ccccc3C(=O)Nc3cncc(O)c3)CC2)n1` [2-{4-[2-(3,5-Dimethyl-pyrazol-1-yl)-acetyl]-piperazin-1-yl}-N-(5-hydroxy-pyridin-3-yl)-benzamide], for which the half-inhibitory concentration (IC50) is 12.5 nM.

On to `Cc1cc(C)n(CC(=O)N2CC=C(c3ccc(Cl)cc3NC(=O)c3cccc(Cl)c3)CC2)n1` [3-Chloro-N-(5-chloro-2-{1-[2-(3,5-dimethyl-pyrazol-1-yl)-acetyl]-1,2,3,6-tetrahydro-pyridin-4-yl}-phenyl)-benzamide], for which the IC50 stood at 7 nM.

Turning to `Cc1cc(C)n(CC(=O)N2CCN(c3ccccc3C(=O)Nc3cc(CC(C)(C)C)no3)CC2)n1` [N-[3-(2,2-Dimethyl-propyl)-isoxazol-5-yl]-2-{4-[2-(3,5-dimethyl-pyrazol-1-yl)-acetyl]-piperazin-1-yl}-benzamide], the IC50 came out at 9.5 nM.

Regarding `Cc1cc(C)n(CC(=O)N2CCN(c3ncc(Cl)cc3NC(=O)c3cccc(C(F)(F)F)c3)CC2)n1` [N-(5-Chloro-2-{4-[2-(3,5-dimethyl-pyrazol-1-yl)-acetyl]-piperazin-1-yl}-pyridin-3-yl)-3-trifluoromethyl-benzamide], the IC50 came to 10.6 nM.

Consider `COc1ccc(C(=O)N(C)CC(=O)N2CCN(c3ccccc3C(=O)Nc3ccncc3)CC2)cc1F` [3-Fluoro-4-methoxy-N-methyl-N-(2-oxo-2-{4-[2-(pyridin-4-ylcarbamoyl)-phenyl]-piperazin-1-yl}-ethyl)-benzamide], for which the IC50 amounted to 15 nM.

Consider `O=C(Nc1ccncc1)c1ccccc1N1CCN(C(=O)Cc2cccc3cccnc23)CC1` [N-Pyridin-4-yl-2-[4-(2-quinolin-8-yl-acetyl)-piperazin-1-yl]-benzamide], for which the IC50 stood at 14 nM.

As to `COc1cc(NC(=O)c2ccccc2N2CCN(C(=O)CN(C)C(=O)c3ncoc3C)CC2)ccn1` [5-Methyl-oxazole-4-carboxylic acid (2-{4-[2-(2-methoxy-pyridin-4-ylcarbamoyl)-phenyl]-piperazin-1-yl}-2-oxo-ethyl)-methyl-amide], the IC50 was 5.5 nM.

For `Cc1nn(CC(=O)N2CCN(c3ccccc3C(=O)Nc3ccncc3)CC2)c(=O)c2ccccc12` [2-{4-[2-(4-Methyl-1-oxo-1H-phthalazin-2-yl)-acetyl]-piperazin-1-yl}-N-pyridin-4-yl-benzamide], the IC50 was 5.4 nM.

Take `Cc1cc(C)n(CC(=O)N2CCN(c3ccccc3C(=O)Nc3nc4c(s3)CN(C)CC4)CC2)n1` [2-{4-[2-(3,5-Dimethyl-pyrazol-1-yl)-acetyl]-piperazin-1-yl}-N-(5-methyl-4,5,6,7-tetrahydro-thiazolo[5,4-c]pyridin-2-yl)-benzamide]: the IC50 was found to be 9.7 nM.

For the compound `Cc1cc(C)n(CC(=O)N2CCN(c3ccccc3C(=O)Nc3nnc(C(C)(C)C)s3)CC2)n1` [N-(5-tert-Butyl-[1,3,4]thiadiazol-2-yl)-2-{4-[2-(3,5-dimethyl-pyrazol-1-yl)-acetyl]-piperazin-1-yl}-benzamide], the IC50 was 9.7 nM.

On to `Cc1cc(C)n(CC(=O)N2CCN(c3ccccc3C(=O)Nc3cnc4ccccc4c3)CC2)n1` [2-{4-[2-(3,5-Dimethyl-pyrazol-1-yl)-acetyl]-piperazin-1-yl}-N-quinolin-3-yl-benzamide], for which the IC50 turned out to be 4.8 nM.

(Values after patent US8362249B2, “CXCR3 receptor antagonists” (Boehringer Ingelheim International GmbH, priority 2009, dated 2013).)
